Measured values taken from article PMC9964319, “Half-Sandwich Rhodium Complexes with Releasable N-Donor Monodentate Ligands: Solution Chemical Properties and the Possibility for Acidosis Activation” (Pharmaceutics, 2023).
Read-outs that look alike come from different tables or passages of the source.

Assays:
[1] = test system: S. aureus ATCC 25923 (methicillin-susceptible); assay: Antibacterial assay, MIC in 96-well plates at different pH; assay type: cell-based
Procedure, shortened: (§1)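 Broth microdilution MIC per CLSI in Mueller Hinton broth, with overnight culture diluted 10,000-fold as inoculum. Each strain and compound tested at pH 5, 6, 7 and 8, in triplicate.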

S. aureus 272123 (MRSA) = assay: as above; assay type: cell-based
Procedure, shortened: as §1

[2] = test system: E. coli ATCC 25922 (sensitive); assay: as above; assay type: cell-based
Procedure, shortened: as §1

[3] = test system: E. coli 32313 (resistant); assay: as above; assay type: cell-based
Procedure, shortened: as §1

[4] = Computed fractions of mixed-ligand complexes as function of pH from formation constants; assay type: physicochemical; details: 100 μM; ratio 1:1
Description: With the help of these formation constants, the extent of complex formation can be estimated for a chosen monodentate ligand—complex chemical system under the desired conditions (concentration and pH). Figure 6 and Figure S25 show the computed fractions of the formed, mixed-ligand complexes between pH = 5 and 8 and at a 100 μM concentration (metal complex-to-monodentate ligand ratio = 1:1). The fraction at pH = 7.4 and at pH 6.0–6.7 were compared to each other.
As an example, the fractions of [Ru(p-cym)(8HQH−1)(mim)]^+ are shown in Figure S26 with decreasing concentration.
Formation constants shown in Figure 5 and in Table S2 were used for the calculation. Percentages indicate the fraction at pH = 7.4 (blue line) and in the range between pH = 6.0–6.7 (pink rectangle: possible pH of tumor microenvironment during acidosis).

[5] = Formation constants of mixed-ligand half-sandwich complexes (UV-vis and 1H NMR); assay type: physicochemical; details: aqua complex + monodentate ligand; I = 0.10 M (KCl); t = 25.0 °C; UV-vis and 1H NMR
Description: NMR spectroscopic studies were carried out on a Bruker Avance III HD Ascend 500 Plus instrument. For the aqueous samples, ^1H NMR spectra were recorded with the WATERGATE water suppression pulse scheme using DSS internal standard. The highest peak of DSS was 0.00 ppm. The measurement was very similar to the UV-vis measurement since the complex–to–monodentate ligand ratio was also between 0–10 equivalents; the spectra were recorded after the given waiting time. […] This technique was useful in those cases where no spectral change was visible during the UV-vis titrations.
In both measurement methods, the formation constant (K) was obtained using the computer program PSEQUAD [38].
It is worthwhile to mention that the liberation of the bidentate ligand was not detected even at higher monodentate ligand excess (~10), which means that the disruption of the bond between the bidentate ligand and the metal center is not feasible under these conditions. The calculated formation constants are compared in Figure 5 and are collected in Table S2. The formation of the mixed-ligand complexes was not detected in three cases under the applied conditions, namely [Ru(p-cym)(en)(mim)]^2+, [Ru(p-cym)(phen)(mim)]^2+, and [Ru(p-cym)(en)(Py)]^2+. For these complexes, only a higher limit of the formation constant could be given, assuming that a maximum of 5% of the complex would form (limit of detection) under the conditions used for ^1H NMR spectroscopy. Based on Figure 5, the following trends are observed in the formation constants: (i) [RhCp*(en)(H2O)]^2+ and [RhCp*(phen)(H2O)]^2+ have a stronger monodentate ligand-binding ability than the Ru(p-cym) analogs; (ii) the formation constants of the [Ru(p-cym)(8HQH-1)(N)]^+ complexes are similar or somewhat higher than those of the RhCp* analogs; (iii) a stability trend for the monodentate ligand: mim > bim > Py (iv) and the bidentate ligand: 8HQH-1 > phen ≥ en can be seen.

[6] = test system: Colo320 human colon adenocarcinoma cell line (doxorubicin-resistant); assay: MTT assay, cytotoxicity at pH 6 and 7; assay type: cell-based; details: Homo sapiens, COLO 320, Colo320, 72 h incubation, read-out: IC50
Description: (§2) All cell culture reagents were obtained from Sigma-Aldrich (Merck KGaA, Darmstadt, Germany) and plasticware from Sarstedt (Nümbrecht, Germany). Human colonic adenocarcinoma cell lines Colo205 (catalog number: ATCC-CCL-222) and its doxorubicin-resistant counterpart Colo320 (catalog number: ATCC-CCL-220.1) were purchased from LGC Promochem (Teddington, UK). The cells were cultured in RPMI 1640 medium supplemented with 10% heat-inactivated fetal bovine serum, 2 mM L-glutamine, 1 mM sodium pyruvate, and 100 mM HEPES buffer, adjusting the pH to 6.0 or 7.0. The cells were incubated at 37 °C in a 5% CO2–95% air atmosphere. The semiadherent human colon cancer cells were detached with Trypsin-Versene solution for 5 min at 37 °C.
(§3) The solutions were freshly prepared prior to measurements (see Section 2.1). […] Firstly, these samples were diluted in complete culture medium; then, two-fold serial dilutions of the compounds were prepared in 100 μL of RPMI 1640, horizontally. The semiadherent colonic adenocarcinoma cells were treated with Trypsin-Versene solution. They were adjusted to a density of 1 × 10^4 cells in 100 μL of RPMI 1640 medium and were added to each well, with the exception of the medium control wells. The final volume of the wells containing compounds and cells was 200 μL. Samples were triplicated. The pH of the medium was adjusted to 6.0 or 7.0.
(§4) The culture plates were incubated at 37 °C for 72 h; at the end of the incubation period, 20 μL of MTT solution (from a stock solution of 5 mg/mL) was added to each well. After incubation at 37 °C for 4 h, 100 μL of SDS solution (10% in 0.01 M HCI) was added to each well, and the plates were further incubated at 37 °C overnight. Cell growth was determined by measuring the optical density (OD) at 540/630 nm with a Multiscan EX ELISA reader (Thermo Labsystems, Cheshire, WA, USA). […] Curves were fitted using GraphPad Prism software (2022, version 9.4.1, Graphpad Software (LLC) d.b.a Dotmatics, San Diego, CA, USA) using the sigmoidal dose–response model (comparing variable and fixed slopes).
(§5) The pH-dependent solution speciation of the selected mixed-ligand complexes is an important feature in the hypothesized mechanism of action, and the modeling of acidosis is necessary for the in vitro anticancer assays. In order to find out the cytotoxicity difference based on the pH of the medium, cytotoxic activity was determined at pH 6 and 7 by MTT assay in two human colon adenocarcinoma cell lines (doxorubicin-sensitive Colo205 and doxorubicin-resistant Colo320). […] The mixed-ligand complexes were prepared prior to the measurements, as was already described in Section 2.1. With this method, the effect of the different counter ions could be avoided, and a more adequate comparison of the mixed-ligand complexes could be conducted.

[7] = test system: Colo205 human colon adenocarcinoma cell line (doxorubicin-sensitive); assay: MTT assay, cytotoxicity at pH 6 and 7; assay type: cell-based; details: Homo sapiens, COLO 205, Colo205, 72 h incubation, read-out: IC50
Description: as §2, §3, §4, §5

[8] = Fractions of mixed-ligand complexes at 1:1 ratio at pH 6.0 and 7.4 by 1H NMR (screening of monodentate ligands); assay type: physicochemical; details: 1H NMR
Description: In the preliminary studies, the co-ordination ability of the monodentate ligands to the [RhCp*(en)(H2O)]^2+, [RhCp*(phen)(H2O)]^2+, and [RhCp*(8HQH-1)(H2O)]^+ complexes was tested (Chart 2). The samples contained the aqua complex and the monodentate ligand in a 1:1 ratio and were buffered at pH = 6.0 and pH = 7.4. For an ideal drug candidate, all of the monodentate ligand would be bound at pH 7.4; thus, the mixed-ligand complex would be present exclusively, which dissociates completely at pH 6.0.
Figure 1 Fractions of the formed mixed-ligand [RhCp*(N,N/O)(N)]^2+/+ complexes at c(complex):c(monodentate ligand) = 1:1 ratio measured at pH = 6.0 (full bars) and 7.4 (checkered bars). Fractions were determined by the integration of the peaks in the ^1H NMR spectra. The percentage values above the columns show the difference in the fractions of the mixed-ligand complex at the two pH values. {c([RhCp*(phen)(H2O)]^2+) = c([RhCp*(en)(H2O)]^2+) = 1 mM; c([RhCp*(8HQH−1)(H2O)]^+) = 500 μM; 10% D2O; pH = 6.0 or 7.4 (PBS’); t = 25.0 °C}. […] The percentages were assigned to (N,N) = en, (N,N) = phen and (N,O) = 8HQH-1 by bar colour only.

[9] = S. aureus sensitive, pH 8, after one day, read-out: MIC
[10] = pH 5, after one day, read-out: MIC
[11] = pH 8, after one day, read-out: MIC
[12] = E. coli sensitive, pH 5, after one day, read-out: MIC
[13] = E. coli sensitive, pH 8, after one day, read-out: MIC
[14] = E. coli resistant, pH 5, after one day, read-out: MIC
[15] = E. coli resistant, pH 8, after one day, read-out: MIC

Description for physchem: pH-potentiometric measurements were performed to determine the protonation constants (Kp) of the ligands and the concentration of the stock solutions. These measurements were carried out at 25.0 ± 0.1 °C in water in a pH range between 2.0 and 11.5, titrating with carbonate-free KOH solution (0.10 M). […] A Thermo Scientific 0710A0 benchtop pH meter (Waltham, MA, USA), equipped with a Metrohm combined electrode (type 6.0234.100) and a Metrohm 665 Dosimat burette (Metrohm, Herisau, Switzerland) was used for these measurements. […] The initial volume of the samples was 10.0 mL, and the ligand concentration was 2.0 mM in the samples. Samples were degassed by bubbling purified argon prior to and during the measurements. The computer program Hyperquad2013 [28] was utilized to determine the protonation constants of the ligands and concentration.
The protonation constants (Kp) were determined by pH-potentiometric and UV-vis spectrophotometric titrations in the presence of 0.1 M KCl (see Table 1 and Figures S21 and S22 for examples).

Cc1c(C)c(C)[c-](C)c1C.Cn1ccnc1.[O-]c1cccc2cccnc12.[Rh+3] [[RhCp*(8HQH−1)(mim)]^+]
13%: difference in computed fraction (dissociated) when pH decreases from 7.4 to 6.0 [4]
50 µM: MIC (S. aureus 272123 (MRSA); [10])
12.5 µM: MIC ([1]; S. aureus sensitive, pH 7, after one day, read-out: MIC) | MIC [1, 9] | MIC (S. aureus 272123 (MRSA); pH 7, after one day, read-out: MIC) | MIC (S. aureus 272123 (MRSA); [11])
4.7 ± 0.2: Formation constant logK of mixed-ligand complex [5]
25 µM: MIC (S. aureus 272123 (MRSA); pH 6, after one day, read-out: MIC)
>100 µM: MIC ([2]; E. coli sensitive, pH 6, after one day, listed as [RhCp*(8HQH-1)Cl] +mim, read-out: MIC) | MIC ([2]; E. coli sensitive, pH 7, after one day, listed as [RhCp*(8HQH-1)Cl] +mim, read-out: MIC) | MIC ([3]; E. coli resistant, pH 6, after one day, listed as [RhCp*(8HQH-1)Cl] +mim, read-out: MIC) | MIC ([3]; E. coli resistant, pH 7, after one day, listed as [RhCp*(8HQH-1)Cl] +mim, read-out: MIC)
> 100 µM: MIC [2, 12] | MIC [2, 13] | MIC [3, 14] | MIC [3, 15]

Cn1ccnc1 [mim, 1-methylimidazole, reference compound]
7.14 ± 0.01: pKa (physchem)
> 100 µM: MIC ([1]; Staphylococcus aureus, ATCC25923, 24 h, S. aureus sensitive, pH 7, after one day, read-out: MIC) | MIC ([1]; Staphylococcus aureus, ATCC25923, 24 h, S. aureus sensitive, pH 8, after one day, read-out: MIC) | MIC ([1]; Staphylococcus aureus, ATCC25923, any of the bacterial strains, S. aureus, read-out: MIC (no antibacterial effect)) | MIC (S. aureus 272123 (MRSA); Staphylococcus aureus, 24 h, pH 5, after one day, read-out: MIC) | MIC (S. aureus 272123 (MRSA); Staphylococcus aureus, 24 h, pH 6, after one day, read-out: MIC) | MIC (S. aureus 272123 (MRSA); Staphylococcus aureus, 24 h, pH 7, after one day, read-out: MIC) | MIC (S. aureus 272123 (MRSA); Staphylococcus aureus, 24 h, pH 8, after one day, read-out: MIC) | MIC (S. aureus 272123 (MRSA); Staphylococcus aureus, any of the bacterial strains, read-out: MIC (no antibacterial effect)) | MIC ([2]; Escherichia coli, ATCC25922, 24 h, E. coli sensitive, pH 5, after one day, read-out: MIC) | MIC ([2]; Escherichia coli, ATCC25922, 24 h, E. coli sensitive, pH 6, after one day, read-out: MIC) | MIC ([2]; Escherichia coli, ATCC25922, 24 h, E. coli sensitive, pH 7, after one day, read-out: MIC) | MIC ([2]; Escherichia coli, ATCC25922, 24 h, E. coli sensitive, pH 8, after one day, read-out: MIC) | MIC ([2]; Escherichia coli, ATCC25922, any of the bacterial strains, E. coli, read-out: MIC (no antibacterial effect)) | MIC ([3]; Escherichia coli, 24 h, E. coli resistant, pH 5, after one day, read-out: MIC) | MIC ([3]; Escherichia coli, 24 h, E. coli resistant, pH 6, after one day, read-out: MIC) | MIC ([3]; Escherichia coli, 24 h, E. coli resistant, pH 7, after one day, read-out: MIC) | MIC ([3]; Escherichia coli, 24 h, E. coli resistant, pH 8, after one day, read-out: MIC) | MIC ([3]; Escherichia coli, any of the bacterial strains, resistant E. coli, read-out: MIC (no antibacterial effect)) | IC50 ([6]; pH 6) | IC50 ([6]; pH 7) | IC50 ([7]; pH 6) | IC50 ([7]; pH 7)

Cc1c(C)c(C)[c-](C)c1C.Cn1ccnc1.NCCN.[Rh+3] [[RhCp*(en)(mim)]^2+]
52%: Fraction of mixed-ligand complex ([8]; pH 6.0, PBS')
4.2 ± 0.1: Formation constant logK of mixed-ligand complex [5]
82%: Fraction of mixed-ligand complex ([8]; pH 7.4, PBS')

Cc1c(C)c(C)[c-](C)c1C.Cn1ccnc1.[Rh+3].c1cnc2c(c1)ccc1cccnc12 [[RhCp*(phen)(mim)]^2+]
25%: difference in computed fraction (dissociated) when pH decreases from 7.4 to 6.0 [4]
> 100 µM: MIC [1, 9] | MIC (S. aureus 272123 (MRSA); [10]) | MIC (S. aureus 272123 (MRSA); [11]) | MIC [2, 12] | MIC [2, 13] | MIC [3, 14] | MIC [3, 15]
5.5 ± 0.1: Formation constant logK of mixed-ligand complex [5]
>100 µM: MIC ([1]; S. aureus sensitive, pH 7, after one day, listed as [RhCp*(phen)Cl]Cl +mim, read-out: MIC) | MIC (S. aureus 272123 (MRSA); pH 6, after one day, listed as [RhCp*(phen)Cl]Cl +mim, read-out: MIC) | MIC (S. aureus 272123 (MRSA); pH 7, after one day, listed as [RhCp*(phen)Cl]Cl +mim, read-out: MIC) | MIC ([2]; E. coli sensitive, pH 6, after one day, listed as [RhCp*(phen)Cl]Cl +mim, read-out: MIC) | MIC ([2]; E. coli sensitive, pH 7, after one day, listed as [RhCp*(phen)Cl]Cl +mim, read-out: MIC) | MIC ([3]; E. coli resistant, pH 6, after one day, listed as [RhCp*(phen)Cl]Cl +mim, read-out: MIC) | MIC ([3]; E. coli resistant, pH 7, after one day, listed as [RhCp*(phen)Cl]Cl +mim, read-out: MIC)

NCc1ccccc1 [benzylamine]
9.42 ± 0.01: pKa (physchem; water with 0.10 M KCl)
